Like-named read-outs stand apart in the source and are kept apart here.
Experiments:
[1] = test system: GTP-KRAS in KRAS G12C, G12V, G12D, and G13D mutant cells; experiment: RAS activation assay, formation of GTP-bound KRAS in mutant cells; format: cell-based; details: 24 h
Source text: Actually, mutant KRAS would interfere the balance between GEFs and GAPs, resulting in locking in the active GTP-bound KRAS state and aberrant stimulation of its downstream signaling.

KRAS mutant cell lines = experiment: Apoptosis by Annexin V-FITC/PI staining and flow cytometry; format: cell-based; details: mutant cancer cells, 24 h
Description: FIG. 6 depicts the compound I induces apoptosis in KRAS-dependent cancer cell line • FIG. 6(A)—Morphological changes after 24 h exposure to compound I ([…]) were captured by an Epifluroscent microscope with ×100 magnification, scale bar: 20 μm. • FIG. 6(B)—Cells were treated with 250 nm of Compound I for 24 h and apoptosis levels were quantitatively measured with flow cytometry after staining cells with Annexin V/propidium iodide (PI), and triplicate data were plotted as bar chart diagram. • FIG. 6(C)—Representative western blot data of different apoptosis-related protein (PARP, Bcl-2, and Bax) confirmed induction of cellular apoptosis after treatment ([…]) for 24 h. […]
Compound 1 was subjected to cancer induced model and determined whether the observed growth inhibition was due to apoptosis or necrosis. […] Next, applying standard Annex in V-FITC/PI staining followed by flow cytometry analysis, the percentage of apoptotic and necrotic cells were quantitatively measured. […] Furthermore, to examine compound-induced apoptosis in KRAS mutant cells, the expression levels of several well-characterized apoptotic proteins were analyzed by western blotting. […] The densitometry quantitation of the ratio of Bax/Bcl2 protein expression and PARP cleavage relative to GAPHD is shown as a bar chart in […].

Oral bioavailability = format: in vivo
[2] = test system: drug-sensitive EGFR mutations, and EGFR C797S mutations; experiment: Enzyme activity of EGFR family members; format: biochemical
Source text: (§1) The activity of Compound 1 on various mutated EGFRs, HER2, and HER4 were examined. MTT assays, flow cytometry, and Western blotting were used to examine the effects of Compound 1 on with different genetic characteristics and relevant molecular mechanisms. Nude mouse xenograft models with cells were used to evaluate the in vim anti-tumor activity of Compound 1. […] Compound 1 blocked EGFR phosphorylation, thereby down regulating downstream PI3/AKT and MAPK/ERK signaling pathways and inducing G0/G1 arrest in different cells. […] Due to compromised homologous recombination (HR) repair, BRCA 1-and BRCA 2-mutated tumours accumulate DNA damage and genomic rearrangements conducive of tumour progression.

wild-type (WT) HER2 = wild-type (WT) HER2 (Homo sapiens, UniProt P04626); experiment: Enzyme activity of EGFR family members; format: biochemical
Source text: as §1

[3] = Crossing blood-brain barrier: pharmacokinetics in brain regions; format: in vivo; set-up: AUC0-t_D: concentration or dose not given beside the values
KRAS = KRAS (Homo sapiens, UniProt P01116); experiment: Binding to KRAS in vitro
Source text: The present invention is aimed to invent powerful, therapeutic small molecules that could target mutant KRAS on its active sites. Here we identified a small molecule, compound I, that binds the GTP/GDP-binding pocket of KRAS. For this purpose we studied a strong correlation of measurement among a larger panel of tumor cell lines expressing KRAS mutation and analyses the potency to inhibit the tumor cell growth activated RAS. […] Therefore, compound I may be considered as a potential KRAS inhibitor for treatment of cancer cells carrying KRAS oncogene.
From the above biological examples it is clearly inferred that the Compound 1 as a new class of KRAS that selectively targets the GTP/GDP binding pocket. […] Compound 1 to 5-induced hyperactivation of mutant KRAS facilitates apoptotic cell death in mutant KRAS cancer cells. Combining the results with detailed structural analysis, we are able to describe key ligand-receptor interactions that correlate with activity. Thus, showing that our screening techniques were very successful at generating KRAS binders that have effects on signaling in cells. […] Therefore, compound Compound 1 is a promising hit for the development of novel non-covalent KRAS inhibitors. The development of this new class of anticancer drug offers a potentially effective strategy for the treatment of cancer with KRAS mutation and/or mutant KRAS-driven cancer. […]

BT-474 = experiment: IC50 of Compound 1 on breast cells (MTT assay); format: cell-based; details: Homo sapiens; BT-474 cells
Source text: as §1

MDA-MB-468 = experiment: IC50 of Compound 1 on breast cells (MTT assay); format: cell-based; details: Homo sapiens; MDA-MB-468 cells
Source text: as §1

MCF-7 = experiment: IC50 of Compound 1 on breast cells (MTT assay); format: cell-based; details: Homo sapiens, MCF7; MCF-7 cells
Source text: as §1

BT-549 = experiment: IC50 of Compound 1 on breast cells (MTT assay); format: cell-based; details: Homo sapiens; BT-549 cells
Source text: as §1

ZR-75-1 = experiment: IC50 of Compound 1 on breast cells (MTT assay); format: cell-based; details: Homo sapiens; ZR-75-1 cells
Source text: as §1

MDA-MB-453 = experiment: IC50 of Compound 1 on breast cells (MTT assay); format: cell-based; details: Homo sapiens; MDA-MB-453 cells
Source text: as §1

MDA-MB-231 = experiment: IC50 of Compound 1 on breast cells (MTT assay); format: cell-based; details: Homo sapiens; MDA-MB-231 cells
Source text: as §1

T-47D = experiment: IC50 of Compound 1 on breast cells (MTT assay); format: cell-based; details: Homo sapiens, T47D; T-47D cells
Source text: as §1

BRCA 1/2-deficient cells = experiment: Toxicity to BRCA-deficient cells; format: cell-based; details: including cisplatin-resistant ones
[4] = test system: KRAS G12C mutant cell lines; experiment: Cytotoxic effect on NCI-Panel of 10 KRAS G12C mutant cell lines; format: cell-based

KRAS, sequence (P01116 1-188 isoform P01116-2): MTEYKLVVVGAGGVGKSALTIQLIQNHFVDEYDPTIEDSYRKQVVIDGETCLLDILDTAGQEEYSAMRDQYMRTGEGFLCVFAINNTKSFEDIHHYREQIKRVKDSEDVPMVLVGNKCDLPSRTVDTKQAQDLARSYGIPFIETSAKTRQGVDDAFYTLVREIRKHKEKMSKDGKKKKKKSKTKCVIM
wild-type (WT) HER2, sequence (P04626 23-1255): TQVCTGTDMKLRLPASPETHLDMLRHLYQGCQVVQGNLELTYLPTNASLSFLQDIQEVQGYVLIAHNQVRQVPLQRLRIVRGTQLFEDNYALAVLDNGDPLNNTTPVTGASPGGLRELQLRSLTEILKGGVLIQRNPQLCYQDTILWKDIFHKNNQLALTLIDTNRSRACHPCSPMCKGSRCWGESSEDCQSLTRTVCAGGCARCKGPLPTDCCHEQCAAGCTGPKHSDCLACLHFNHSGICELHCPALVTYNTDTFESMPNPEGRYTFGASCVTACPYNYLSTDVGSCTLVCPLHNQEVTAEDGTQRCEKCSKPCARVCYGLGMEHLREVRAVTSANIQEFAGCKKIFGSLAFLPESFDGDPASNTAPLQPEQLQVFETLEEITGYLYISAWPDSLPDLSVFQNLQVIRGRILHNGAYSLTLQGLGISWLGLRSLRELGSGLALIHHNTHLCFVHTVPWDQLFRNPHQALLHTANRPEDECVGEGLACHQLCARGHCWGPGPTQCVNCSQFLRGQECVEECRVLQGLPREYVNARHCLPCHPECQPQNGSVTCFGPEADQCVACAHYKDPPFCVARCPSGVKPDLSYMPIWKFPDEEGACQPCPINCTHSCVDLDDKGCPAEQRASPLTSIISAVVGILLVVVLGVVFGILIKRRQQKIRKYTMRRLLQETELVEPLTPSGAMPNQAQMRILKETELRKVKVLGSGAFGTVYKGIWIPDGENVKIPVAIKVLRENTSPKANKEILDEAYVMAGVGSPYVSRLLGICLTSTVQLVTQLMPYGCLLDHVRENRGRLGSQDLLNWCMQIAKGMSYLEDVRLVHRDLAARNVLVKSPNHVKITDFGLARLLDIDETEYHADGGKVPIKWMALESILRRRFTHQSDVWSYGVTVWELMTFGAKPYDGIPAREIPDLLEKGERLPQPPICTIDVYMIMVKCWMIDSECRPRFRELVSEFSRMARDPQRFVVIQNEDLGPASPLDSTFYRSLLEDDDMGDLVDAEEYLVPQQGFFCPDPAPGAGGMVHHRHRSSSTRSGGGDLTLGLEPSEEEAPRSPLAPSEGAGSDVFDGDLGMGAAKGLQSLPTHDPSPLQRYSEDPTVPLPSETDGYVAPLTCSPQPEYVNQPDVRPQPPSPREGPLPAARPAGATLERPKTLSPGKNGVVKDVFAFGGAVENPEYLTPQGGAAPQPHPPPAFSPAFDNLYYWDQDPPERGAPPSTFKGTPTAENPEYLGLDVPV

CCCCc1ncc(C(=O)C2CC=C(C(N)=O)N2)cc1C(=O)OCC (stereo not shown) [Compound 1]
formation of GTP-KRAS relative to the total amount of KRAS [1]: selectively inhibit the formation of GTP-KRAS
apoptosis compared with the untreated cells (KRAS mutant cell lines): significantly induced apoptosis
F (Bioavailability) (Oral bioavailability): F-92% (Bioavailability)
enzyme activity of mutated EGFR [2]: effectively inhibited the enzyme activity
enzyme activity of HER2 (wild-type (WT) HER2): effectively inhibited the enzyme activity
AUC0-t_D ([3]; Brainstem): 85.63 ± 17.43 h × ng/g/mg, h × ng/mL/mg
MRTQ-t ([3]; Brainstem): 5.89 ± 0.34 h
Tmax ([3]; Brainstem): 1.35 ± 0.33 h
T½ ([3]; Brainstem): 1.81 ± 0.23 h
AUC0-t_D ([3]; Cortex): 152.08 ± 5.25 h × ng/g/mg, h × ng/mL/mg
MRTQ-t ([3]; Cortex): 6.23 ± 0.65 h
Tmax ([3]; Cortex): 1.14 ± 0.09 h
T½ ([3]; Cortex): 5.86 ± 2.91 h
AUC0-t_D ([3]; Hippocampus): 58.20 ± 15.36 h × ng/g/mg, h × ng/mL/mg
MRTQ-t ([3]; Hippocampus): 5.18 ± 0.51 h
Tmax ([3]; Hippocampus): 1.25 ± 1.08 h
T½ ([3]; Hippocampus): 1.19 ± 0.22 h
AUC0-t_D ([3]; Hypothalamus): 59.10 ± 5.06 h × ng/g/mg, h × ng/mL/mg
MRTQ-t ([3]; Hypothalamus): 5.25 ± 0.60 h
Tmax ([3]; Hypothalamus): 0.54 ± 0.24 h
T½ ([3]; Hypothalamus): 1.18 ± 0.26 h
AUC0-t_D ([3]; Striatum): 123.81 ± 4.90 h × ng/g/mg, h × ng/mL/mg
MRTQ-t ([3]; Striatum): 6.75 ± 0.68 h
Tmax ([3]; Striatum): 0.14 ± 0.09 h
T½ ([3]; Striatum): 3.45 ± 0.93 h
binding affinity to KRAS (KRAS): nanomolar binder
binding affinity to KRAS (KRAS; listed as Compound I): good binding affinity
IC50 (BT-474): 4.45 ± 0.1 µM
IC50 (MDA-MB-468): 4.21 ± 0.3 µM
IC50 (MCF-7): 2.98 ± 0.6 µM
IC50 (BT-549): 3.24 ± 0.08 µM
IC50 (ZR-75-1): 1.69 ± 0.14 µM
IC50 (MDA-MB-453): 3.65 ± 0.44 µM
IC50 (MDA-MB-231): 4.89 ± 0.37 µM
IC50 (T-47D): 5.19 ± 0.28 µM
toxicity to BRCA 1/2-deficient cells (BRCA 1/2-deficient cells): specifically toxic
number of cancer cells compared against AMG510 and MRTX849 [4]: significant reduction in the number of cancer cells
